Laboratory results reported in patent EP1007514B1, “HETEROCYCLIC KETONES AS NPY Y5 ANTAGONISTS” (BAYER CORPORATION, priority 1997, dated 1999).

Tests used:
[1] = molecular target: T1, human NPY Y2 (Homo sapiens, UniProt P49146); assay: NPY Y2 receptor membrane binding, [125I]PYY; conditions: membrane protein; 25 pM [125I]PYY; test compounds at 5 µM final concentration; read-out: IC50 (µM) NPY receptor indicated hY2
T1 sequence (P49146 1-381): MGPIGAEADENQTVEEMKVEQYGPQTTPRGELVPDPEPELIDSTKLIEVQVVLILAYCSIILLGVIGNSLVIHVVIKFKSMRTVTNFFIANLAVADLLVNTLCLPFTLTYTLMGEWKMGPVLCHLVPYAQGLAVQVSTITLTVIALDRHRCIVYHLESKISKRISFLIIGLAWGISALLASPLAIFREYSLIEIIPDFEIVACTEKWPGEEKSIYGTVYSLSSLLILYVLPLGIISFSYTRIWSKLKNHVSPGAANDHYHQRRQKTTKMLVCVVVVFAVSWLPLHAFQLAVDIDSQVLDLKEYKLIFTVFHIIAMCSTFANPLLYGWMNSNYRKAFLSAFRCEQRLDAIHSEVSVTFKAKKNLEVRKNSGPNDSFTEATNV
Protocol: Assays to determine binding affinity for human NPY Y2 and Y4/PP1 receptor subtypes are performed on GF/C Millipore 96-well plates pretreated with 0.02% polyethylenimine. […] Samples consist of membrane protein, 25 pM [^125I]PYY and test compounds at 5 µM final concentration. Nonspecific binding is defined by 1 µM NPY. The binding buffer for human Y4/PP1 binding consists of 137 mM NaCl, 5.4 mM KCl, 0.44 mM KH2PO4, 1.26 mM CaCl2, 0.81 mM MgSO4, 20 mM HEPES, 1 mM dithiothreitol, 0.1% bacitracin, 100 mg/l streptomycin sulfate, 1 mg/l aprotinin, 10 mg/ml soybean trypsin inhibitor and 0.3% BSA, pH 7.4. Samples consist of membrane protein, 50 pM human [^125I] human PP (hPP:NEN DuPont, Boston MA) and test compounds diluted to a final concentration of 5 µM. One µM hPP is used to define nonspecific binding. After a 2 hour incubation at room temperature with constant mixing, the samples are aspirated on a vacuum manifold, and rinsed with ice-cold binding buffer. The amount of radioactivity in each well is quantitated with either gamma counting or liquid scintillation.

[2] = molecular target: T2, rat NPY Y5 receptor subtype (Rattus norvegicus, UniProt Q63634); assay: NPY Y5 receptor membrane binding, [125I]PYY (rat); conditions: membrane protein; 75-100 pM [125I]PYY; 50% inhibition of specific binding; read-out: IC50 (µM) NPY receptor indicated rY5
T2 sequence (Q63634 1-445): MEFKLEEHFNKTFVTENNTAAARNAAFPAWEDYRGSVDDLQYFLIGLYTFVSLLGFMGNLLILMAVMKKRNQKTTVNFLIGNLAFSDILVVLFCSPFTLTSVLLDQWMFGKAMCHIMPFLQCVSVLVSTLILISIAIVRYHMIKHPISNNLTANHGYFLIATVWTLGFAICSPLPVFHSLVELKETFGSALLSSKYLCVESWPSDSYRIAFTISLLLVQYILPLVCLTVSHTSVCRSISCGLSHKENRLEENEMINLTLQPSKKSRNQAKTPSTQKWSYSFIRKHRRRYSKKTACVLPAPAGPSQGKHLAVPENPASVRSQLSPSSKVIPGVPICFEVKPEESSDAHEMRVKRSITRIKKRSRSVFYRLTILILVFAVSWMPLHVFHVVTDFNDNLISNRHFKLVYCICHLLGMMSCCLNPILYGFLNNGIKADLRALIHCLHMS
Protocol: Assays to determine human and rat NPY Y5 receptor subtype binding affinity are performed on GF/C Millipore 96-well plates pretreated with 0.02% polyethylenimine. The binding buffer is 25 mM Tris, 120 mM NaCl, 5 mM KCl, 1.2 mM KH2PO4, 2.5 mM CaCl2, 1.2 mM MgSO4, 0.1% BSA and 0.5 mg/ml bacitracin, pH 7.4. Samples consist of membrane protein, 75-100 pM [^125I] PYY (porcine, NEN-DuPont) and test compounds diluted in binding buffer. Nonspecific binding is defined by 1 µM PYY. After a 2 hour incubation at room temperature with constant mixing, the samples are aspirated on a vacuum manifold and rinsed with ice-cold binding buffer. The amount of radioactivity in each well is quantitated with either gamma counting or liquid scintillation. IC50 values, which correspond to 50% inhibition of specific binding, are determined with non-linear regression analysis.

[3] = molecular target: T3, rat NPY Y5 receptor (Rattus norvegicus, UniProt Q63634); assay: In vitro functional assay, forskolin-stimulated cAMP in cells stably expressing the receptor; type: cell-based; conditions: percentage of forskolin-stimulated adenylate cyclase; 1 µM forskolin; test compound 10 µM; 80 - 120% indicates no significant agonistic effect
T3 construct: expressed in transfected cells
T3 sequence (Q63634 1-445): T2 sequence (Q63634 1-445)
Protocol: An in vitro functional assay to determine rat NPY Y5 receptor subtype binding affinity is performed by resuspending cells stably expressing the rat NPY Y5 receptor in serum-free DMEM containing 10 mM HEPES (pH 7.4) and 1 mM isobutylmethylxanthine (IBMX). One µM forskolin and test compounds at a final concentration of 10 µM are then added to the cells. After a 20 minute incubation of the samples at 37°C, the assay is stopped by placing the samples in boiling water for 3 minutes. The cAMP produced in each sample is quantitated with a radioimmunoassay kit (NEN DuPont). Data are expressed as a percentage of forskolin-stimulated adenylate cyclase. Data between 80 - 120% indicates no significant agonistic effect.

| SMILES | IC50 [1] [µM] | IC50 [2] [µM] | % forskolin at 10 µM [3] [%] |
| --- | --- | --- | --- |
| Cc1ccc(SCC(C(=O)c2ncc[nH]2)c2ccccc2)cc1 (stereo not shown) [Compound 2, (1H-Imidazol-2-yl)-2-phenyl-3-p-tolylsulfanyl-propan-1-one] | > 5 | 0.46 |  |
| Cc1ccc(S(=O)(=O)CC(C(=O)c2nc3ccccc3s2)c2ccccc2)cc1 (stereo not shown) [Compound 6, 1-Benzothizol-2-yl-2-phenyl-3-(toluene-4-sulfonyl)-propan-1-one] | > 5 | 10 | 89 |
| Cc1ccc(S(=O)(=O)CC(C(=O)c2nc3cc(C)c(C)cc3[nH]2)c2ccccc2)cc1 (stereo not shown) [Compound 7, (5,6-Dimethyl-1H-benzoimidazol-2-yl)-2-phenyl-3-(toluene-4-sulfonyl)-propan-1-one] | 8.3 | 0.0526 | 122 |
| O=C(c1nc2ccccc2[nH]1)C(CS(=O)(=O)c1ccccc1)c1ccccc1 (stereo not shown) [Compound 8, 3-Benzenesulfonyl-1-(1H-benzoimidazol-2-yl)-2-phenyl-propan-1-one] | > 5 | 0.011 | 105 |
| COc1ccc(S(=O)(=O)CC(C(=O)c2nc3ccccc3[nH]2)c2ccccc2)cc1 (stereo not shown) [Compound 10, 1-(1H-Benzoimidazol-2-yl)-3-(4-methoxy-benzenesulfonyl)-2-phenyl-propan-1-one] | > 5 | 0.0067 | 106 |
| COc1ccc2[nH]c(C(=O)C(CS(=O)(=O)c3ccc(C)cc3)c3ccccc3)nc2c1 (stereo not shown) [Compound 14, 1-(5-Methoxy-1H-benzoimidazol-2-yl)-2-phenyl-3-(toluene-4-sulfonyl)-propan-1-one] | > 5 |  | 99 |
